For assay [1], the target named is T1, SETD2(1434-1711) (Homo sapiens, UniProt Q9BYW2).
T1 construct: SETD2 (1434-1711) Assay; catalogue N/A
T1 sequence (Q9BYW2 1434-1711): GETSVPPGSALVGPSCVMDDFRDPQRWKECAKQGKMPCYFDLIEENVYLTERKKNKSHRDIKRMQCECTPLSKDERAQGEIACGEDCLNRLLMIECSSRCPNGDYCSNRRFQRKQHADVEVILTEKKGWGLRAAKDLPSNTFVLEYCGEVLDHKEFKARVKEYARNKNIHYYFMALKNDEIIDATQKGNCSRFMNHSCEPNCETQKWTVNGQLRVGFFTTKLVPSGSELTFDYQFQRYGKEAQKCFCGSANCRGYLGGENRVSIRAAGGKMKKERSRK
Description: SETD2 (1434-1711) assay. Format: biochemical. Particulars: read-out: SETD2 (1434-1711).

For assay [2], the system named is H3K36me3 in A549 cells. Description: In-Cell Western (ICW) assay of SETD2 inhibitors (A549 assay). The format is cell-based, human. The procedure:
In-Cell Western (ICW) Assay of SETD2 Inhibitors (A549 Assay)
Representative Compounds of the Disclosure were tested in the A549 assay according the following protocol.
1. Reagents and Consumables:
Prepare plates with compounds. Seed A549 cells to the plates with compounds, 4,000 cells/well, 50 μl/well. Put the plates at room temperature on a non-vibrating surface for 20 minutes before placing in the incubator. Incubate the plate at 37° C. incubator with CO2 for 3 days. Remove plate from incubator and bring to room temperature. Blot media out of the plate and add 50 μL of ice cold 100% methanol. Incubate 30 minutes at room temperature. Remove methanol by aspiration. Wash 3× with PBST. Add 50 μL of Blocking Buffer+0.1% Tween 20. Incubate 1 hour. Remove Blocking Buffer, wash 3× with PBST. Add 20 μL of H3K36me3 (1:1000 dilution). […] Incubate overnight at 4° C. Wash plate 5× with PBS-T. Add 20 μL of DRAQ5 (1:1000) and IRDye 800CW Goat anti-Rabbit IgG (1:500). Incubate for 1 hour in the dark. Wash plate 5× with PBS-T. Wash plate 3× with water. Dry by blotting on paper towel, then centrifuge plate upside down on a thin layer of paper towels for 1 minute at 1000 rpm to remove excess reagent. Leave plate uncovered for ˜10 minutes out of direct light before reading. Read on Licor instrument.
4. Licor Instrument Settings:
Preset: Plate; Resolution: 84 μm; Quality: low; Focus offset: 4.0; 700 channel intensity: 2; and 800 channel intensity: 3.

[3] abbreviates: Homo sapiens, A549 cells, read-out: SETD2 A549.
The mark [4] stands for this setting: A549 cells, read-out: SETD2 A549.

Like-named read-outs stand apart in the source and are kept apart here.

Regarding `Cc1ccc(F)c2cc(C(=O)Nc3cccc(-c4nnco4)c3)[nH]c12` [Cpd. No. 60, N-(3-(1,3,4-oxadiazol-2-yl)phenyl)-4-fluoro-7-methyl-1H-indole-2-carboxamide], the IC50 in assay [1] stood at 0.03 µM; in assay [2] (setting [3]), 0.1 µM. For `Cc1ccc(F)c2cc(C(=O)Nc3cc(F)cc4cnccc34)[nH]c12` [Cpd. No. 82, 4-fluoro-N-(7-fluoroisoquinolin-5-yl)-7-methyl-1H-indole-2-carboxamide], the IC50 in assay [1] was found to be 0.04 µM; in assay [2] (setting [3]), 0.2 µM. Consider `Cc1cccnc1C(Cc1cnn(C)c1)NC(=O)c1cc2c(F)ccc(C)c2[nH]1` (stereo not drawn) [Cpd. No. 85, 4-fluoro-7-methyl-N-(2-(1-methyl-1H-pyrazol-4-yl)-1-(3-methylpyridin-2-yl)ethyl)-1H-indole-2-carboxamide], for which the IC50 in assay [1] came out at 0.04 µM; in assay [2] (setting [3]), 0.2 µM.

On to `Cc1cc(Cn2ccnc2)cnc1C(NC(=O)c1cc2c(F)ccc(C)c2[nH]1)C1CC1` (stereo not drawn) [Cpd. No. 161, N-((5-((1H-imidazol-1-yl)methyl)-3-methylpyridin-2-yl)(cyclopropyl)methyl)-4-fluoro-7-methyl-1H-indole-2-carboxamide], for which the IC50 in assay [1] worked out at 0.03 µM; in assay [2] (setting [3]) it was 0.3 µM. The corresponding values for `Cc1ccc(F)c2cc(C(=O)Nc3cccc4c3cnn4[C@H]3CC[C@H](N(C)C)CC3)[nH]c12` [Cpd. No. 213, N-(1-((1r,4r)-4-(dimethylamino)cyclohexyl)-1H-indazol-4-yl)-4-fluoro-7-methyl-1H-indole-2-carboxamide] are 0.007 µM and 0.5 µM. Take `Cc1ccc(F)c2cc(C(=O)Nc3ccnc(N4CCN(C)CC4)c3)[nH]c12` [Cpd. No. 340, 4-fluoro-7-methyl-N-(2-(4-methylpiperazin-1-yl)pyridin-4-yl)-1H-indole-2-carboxamide]: the IC50 in assay [1] came to 0.2 µM; in assay [2] (Homo sapiens, A549, read-out: SETD2 A549), 1.7 µM. For the compound `Cc1ccc(F)c2cc(C(=O)NCC3(c4ccccc4N4CCN(C)CC4)CC3)[nH]c12` [Cpd. No. 392, 4-fluoro-7-methyl-N-((1-(2-(4-methylpiperazin-1-yl)phenyl)cyclopropyl)methyl)-1H-indole-2-carboxamide], the IC50 came out at 0.06 µM in assay [1] and 2 µM in assay [2] (setting [3]). In the case of `Cc1ccc(F)c2cc(C(=O)NC(c3nccc4ccccc34)C3CC3)[nH]c12` (stereo not drawn) [Cpd. No. 507, N-(cyclopropyl(isoquinolin-1-yl)methyl)-4-fluoro-7-methyl-1H-indole-2-carboxamide], the IC50 in assay [1] was found to be 1.1 µM; in assay [2] (setting [3]), 15.1 µM. Consider `Cc1ccc(F)c2cc(C(=O)Nc3cc(F)cc(N4CCC(N5CCN6C(=O)N(C)CC6C5)C4)c3)[nH]c12` (stereo not drawn) [compound 2], for which the IC50 in assay [1] worked out at 0.005 µM; in assay [2] (setting [4]) it was 0.03 µM. For `Cc1ccc(F)c2cc(C(=O)Nc3cc(F)cc(N4CCC(N(C)C)C4=O)c3)[nH]c12` (stereo not drawn) [compound 3], the IC50 in assay [1] was determined as 0.004 µM; in assay [2] (setting [4]) it was 0.03 µM. In the same order, the values of `Cc1ccc(F)c2cc(C(=O)Nc3cc(F)cc(N4CCC(N5CCN(CC(=O)N(C)C)CC5)C4)c3)[nH]c12` (stereo not drawn) [compound 4] are 0.006 µM and 0.03 µM. With `CC(=O)N1CCC2(CC1)CCN(c1cc(F)cc(NC(=O)c3cc4c(F)ccc(C)c4[nH]3)c1)C2` [compound 5], the IC50 in assay [1] worked out at 0.008 µM; in assay [2] (setting [4]) it was 0.04 µM. In the same order, the values of `Cc1ccc(F)c2cc(C(=O)Nc3cc(F)cc(N4CCC(N5CCN(CC(N)=O)CC5)C4)c3)[nH]c12` (stereo not drawn) [compound 6] are 0.006 µM and 0.04 µM. Consider `CC(=O)N1CCN(C2CCN(c3cc(F)cc(NC(=O)c4cc5c(F)ccc(C)c5[nH]4)c3)C2)CC1` (stereo not drawn) [compound 9], for which the IC50 in assay [1] stood at 0.008 µM; in assay [2] (setting [4]) it was 0.04 µM. In the same order, the values of `Cc1ccc(F)c2cc(C(=O)Nc3cc(F)cc(N4CCN(C5CC5)C(=O)C4)c3)[nH]c12` [compound 10] are 0.01 µM and 0.04 µM. In the same order, the values of `COCC(=O)N1CCN(c2cc(F)cc(NC(=O)c3cc4c(F)ccc(C)c4[nH]3)c2)CC1` [compound 12] are 0.01 µM and 0.05 µM.

As for `CC(=O)N1CCC2C1CCN2c1cc(F)cc(NC(=O)c2cc3c(F)ccc(C)c3[nH]2)c1` (stereo not drawn) [compound 13], the IC50 in assay [1] came to 0.01 µM; in assay [2] (setting [4]) it was 0.05 µM. The corresponding values for `CC(=O)N1CCC2CN(c3cc(F)cc(NC(=O)c4cc5c(F)ccc(C)c5[nH]4)c3)CC21` (stereo not drawn) [compound 14] are 0.007 µM and 0.05 µM.

As for `Cc1ccc(F)c2cc(C(=O)Nc3cc(F)cc(N4CCC(N5CCOC(CO)C5)C4)c3)[nH]c12` (stereo not drawn) [compound 16], the results for the IC50 in assay [1] and in assay [2] (setting [4]) were 0.01 µM and 0.05 µM, respectively. The corresponding values for `Cc1ccc(F)c2cc(C(=O)Nc3cc(F)cc(N4CCC(N5CCN(C)C(=O)C5)C4)c3)[nH]c12` (stereo not drawn) [compound 17] are 0.009 µM and 0.05 µM. Regarding `Cc1ccc(F)c2cc(C(=O)Nc3cc(F)cc(N4CCC(N5CCCC5=O)C4)c3)[nH]c12` (stereo not drawn) [compound 18], the IC50 in assay [1] was found to be 0.008 µM; in assay [2] (setting [4]) it was 0.06 µM.

As for `CC(=O)N1CCC2(CC1)CN(c1cc(F)cc(NC(=O)c3cc4c(F)ccc(C)c4[nH]3)c1)C2` [compound 19], the IC50 in assay [1] was found to be 0.01 µM; in assay [2] (setting [4]), 0.06 µM. As for `Cc1ccc(F)c2cc(C(=O)Nc3cc(F)cc(N4CCN(C)C(=O)C4)c3)[nH]c12` [compound 20], the IC50 in assay [1] amounted to 0.009 µM; in assay [2] (setting [3]) it was 0.06 µM. `Cc1ccc(F)c2cc(C(=O)Nc3cc(F)cc(N4CCOC(CCO)C4)c3)[nH]c12` (stereo not drawn) [compound 24]: the figures for the IC50 in assay [1] and in assay [2] (setting [4]) were 0.02 µM and 0.06 µM, respectively. In the case of `Cc1ccc(F)c2cc(C(=O)Nc3cc(F)cc(N4CCN(C(=O)N(C)C)CC4)c3)[nH]c12` [compound 25], the results for the IC50 in assay [1] and in assay [2] (setting [4]) were 0.01 µM and 0.07 µM, respectively. In the same order, the values of `Cc1ccc(F)c2cc(C(=O)Nc3cc(F)cc(C4CCN5C(=O)CCC5C4)c3)[nH]c12` (stereo not drawn) [compound 26] are 0.01 µM and 0.07 µM. The corresponding values for `Cc1ccc(F)c2cc(C(=O)Nc3cccc(N4CCN5C(=O)CCC5C4)c3)[nH]c12` (stereo not drawn) [compound 27] are 0.02 µM and 0.07 µM.

On to `Cc1ccc(F)c2cc(C(=O)Nc3cc(F)cc(N4CCC5(CCNCC5(F)F)C4)c3)[nH]c12` (stereo not drawn) [compound 28], for which the IC50 came out at 0.01 µM in assay [1] and 0.07 µM in assay [2] (setting [3]).

As to `Cc1ccc(F)c2cc(C(=O)Nc3cc(F)cc(N4CCC(N5CCn6ccnc6C5)C4)c3)[nH]c12` (stereo not drawn) [compound 29], the IC50 turned out to be 0.02 µM in assay [1] and 0.07 µM in assay [2] (setting [4]). The corresponding values for `CC(=O)N1CCC2(CCN(c3cc(F)cc(NC(=O)c4cc5c(F)ccc(C)c5[nH]4)c3)CC2)C1` [compound 30] are 0.008 µM and 0.07 µM. For the compound `Cc1ccc(F)c2cc(C(=O)Nc3cc(F)cc([C@H]4CC[C@@H](N5CCOCC5)CC4)c3)[nH]c12` [compound 35], the IC50 in assay [1] stood at 0.006 µM; in assay [2] (setting [3]), 0.08 µM. Regarding `CCC(=O)N1CCN(c2cccc(NC(=O)c3cc4c(F)ccc(C)c4[nH]3)c2)CC1` [compound 36], the IC50 in assay [1] came out at 0.03 µM; in assay [2] (setting [4]) it was 0.09 µM.

As to `Cc1ccc(F)c2cc(C(=O)Nc3cccc(C4CCN5C(=O)CCC5C4)c3)[nH]c12` (stereo not drawn) [compound 37], the IC50 in assay [1] was 0.02 µM; in assay [2] (setting [4]), 0.09 µM. Turning to `Cc1ccc(F)c2cc(C(=O)Nc3cc(F)cc(N4CCC(N5CCN(C(=O)CN(C)C)CC5)C4)c3)[nH]c12` (stereo not drawn) [compound 39], the figures for the IC50 in assay [1] and in assay [2] (setting [4]) were 0.004 µM and 0.09 µM, respectively.

As to `Cc1ccc(F)c2cc(C(=O)Nc3cc(F)cc(N4CC5(CCN(CC(F)F)CC5)C4)c3)[nH]c12` [compound 40], the IC50 in assay [1] was determined as 0.04 µM; in assay [2] (setting [4]), 0.1 µM. Regarding `CC(=O)N1CCC2CN(C3CCCC(NC(=O)c4cc5c(F)ccc(C)c5[nH]4)C3)CC21` (stereo not drawn) [compound 1183], in assay [2] (setting [4]), the IC50 is greater than 2 µM. Regarding `CC(=O)N1CCC2C1CCN2C1CCCC(NC(=O)c2cc3c(F)ccc(C)c3[nH]2)C1` (stereo not drawn) [compound 1184], the IC50 in assay [2] (setting [4]) was 0.005 µM. Regarding `CC(=O)N1CCC2C1CCN2C1CCCC(NC(=O)c2cc3c(F)ccc(C)c3[nH]2)C1` (stereo not drawn) [compound 1185], the IC50 in assay [2] (setting [4]) was determined as 0.07 µM. With `CC(=O)N1CCC2C1CCN2C1CCCC(NC(=O)c2cc3c(F)ccc(C)c3[nH]2)C1` (stereo not drawn) [compound 1186], the IC50 in assay [2] (setting [4]) is greater than 2 µM. Same read-out and setting: the same measure for `CC(=O)N1CCC2C1CCN2C1CCCC(NC(=O)c2cc3c(F)ccc(C)c3[nH]2)C1` (stereo not drawn) [compound 1187]: greater than 2 µM.

For the origin of these results see patent publication US12116358B2, “Substituted indoles and methods of use thereof” (EPIZYME, INC., priority 2018, dated 2024).
